Experimental data as given in patent US11571423B2, “Small molecule modulators of human sting” (Curadev Pharma Limited, priority 2017, dated 2023).

Legend:
hSTING(R232) = hSTING(R232) (Homo sapiens, UniProt Q86WV6, H232R); experiment: Luciferase reporter assay in HEK293T-hSTING-Luciferase cells, R232 (wild type) human STING; type: cell-based; conditions: 20 hr stimulation, read-out: R232 human activity (EC50 range)
How it was run: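 Clonal HEK293T cells stably expressing STING from a pUNO-1 plasmid plus an ISRE/ISG54-driven secreted luciferase reporter; 5×10^5 cells stimulated with compound for 20 hr. Supernatant luciferase read by luminescence, giving fold-induction over baseline and EC50.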

[1] = target: cynomolgus monkey STING protein (Macaca fascicularis, UniProt A0A2R3XZA6); experiment: Luciferase reporter assay, cynomolgus monkey STING overexpressed in HEK293T cells; type: cell-based; conditions: cynomolgus monkey STING overexpressed in HEK293T cells; read-out: Cynomolgus monkey STING activity (EC50 range)
How it was run: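 HEK293T cells overexpressing cynomolgus STING with a secreted luciferase reporter were stimulated with compound for 20 hr. Supernatant reporter activity was then measured by Quanti-Luc luminescence, and EC50 values were derived.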

hSTING(H232) = hSTING(H232) (Homo sapiens, UniProt Q86WV6); experiment: Luciferase reporter assay in HEK293T-hSTING-Luciferase cells, H232/REF polymorph; type: cell-based; conditions: H232/REF polymorph of human STING, EC50 range class
How it was run: (§1)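 HEK293T cells stably co-express the hSTING variant (hEF1-HTLV promoter) and an ISRE/ISG54 IRF-inducible luciferase reporter. Clones with minimal ligand-independent activation were used. Cells were stimulated with compounds for 20 hr, and secreted luciferase in the supernatant was read by luminescence to give EC50.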

hSTING(HAQ) = hSTING(HAQ) (Homo sapiens, UniProt Q86WV6, G230A/H232R/R293Q/R71H); experiment: Luciferase reporter assay in HEK293T-hSTING-Luciferase cells, HAQ polymorph; type: cell-based; conditions: HAQ polymorph of human STING, EC50 range class
How it was run: as §1

IRF pathway = experiment: Reporter gene expression assay in THP1-Dual cells, IRF axis (secreted Lucia luciferase); type: cell-based, human; conditions: Homo sapiens, 20 hr stimulation, EC50 range class, read-out: THP-IRF activity
How it was run: (§2)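 Human THP-1 monocyte-derived cells with two inducible reporters: 5×10^5 cells seeded and stimulated with compounds for 20 hr. SEAP (QUANTI-Blue) and Lucia luciferase (QUANTI-Luc) measured in supernatant; EC50 values reported as ranges.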

NF-κB pathway = experiment: Reporter gene expression assay in THP1-Dual cells, NFkB axis (secreted SEAP); type: cell-based, human; conditions: Homo sapiens, 20 hr stimulation, EC50 range class, read-out: THP-NFκB activity
How it was run: as §2

Measured: EC50

hSTING(H232), sequence (Q86WV6 whole entry): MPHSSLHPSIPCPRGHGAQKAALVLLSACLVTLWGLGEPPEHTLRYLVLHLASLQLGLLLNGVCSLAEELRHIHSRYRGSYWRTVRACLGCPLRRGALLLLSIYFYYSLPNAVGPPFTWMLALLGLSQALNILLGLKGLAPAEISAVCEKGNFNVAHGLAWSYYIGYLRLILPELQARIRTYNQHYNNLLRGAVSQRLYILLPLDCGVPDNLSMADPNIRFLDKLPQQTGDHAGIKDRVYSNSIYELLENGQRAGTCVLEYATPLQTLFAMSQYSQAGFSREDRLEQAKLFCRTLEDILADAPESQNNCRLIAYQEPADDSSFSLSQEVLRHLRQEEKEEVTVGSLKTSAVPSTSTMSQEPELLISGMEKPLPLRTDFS
hSTING(HAQ), sequence (Q86WV6 whole entry R71H/G230A/H232R/R293Q): as the sequence (Q86WV6 whole entry) above, with R71H, G230A, H232R, R293Q counted along it
hSTING(R232), sequence (Q86WV6 whole entry H232R): as the sequence (Q86WV6 whole entry) above, with H232R counted along it
cynomolgus monkey STING protein, sequence (A0A2R3XZA6 entry or part of it): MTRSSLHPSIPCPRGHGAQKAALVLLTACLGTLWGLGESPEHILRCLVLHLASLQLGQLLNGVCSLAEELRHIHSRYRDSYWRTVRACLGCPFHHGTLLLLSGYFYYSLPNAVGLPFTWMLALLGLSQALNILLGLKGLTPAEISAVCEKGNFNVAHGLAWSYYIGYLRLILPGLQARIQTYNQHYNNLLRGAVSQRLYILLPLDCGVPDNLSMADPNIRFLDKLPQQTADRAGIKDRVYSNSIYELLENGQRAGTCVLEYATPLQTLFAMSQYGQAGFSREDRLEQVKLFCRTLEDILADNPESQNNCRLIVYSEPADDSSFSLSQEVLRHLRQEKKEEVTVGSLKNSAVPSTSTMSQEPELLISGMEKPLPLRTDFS

C[C@H]1c2ccc(C(=O)NCc3c(F)cc(F)cc3F)cc2N(Cc2c(F)cc(OCCNS(C)(=O)=O)cc2F)C(=O)N1C [Example 290, (S)-1-(2,6-difluoro-4-(2-(methylsulfonamido)ethoxy)benzyl)-3,4-dimethyl-2-oxo-N-(2,4,6-trifluorobenzyl)-1,2,3,4-tetrahydroquinazoline-7-carboxamide]
< 1000 nM: all assays above

COc1cnc(C)c(F)c1CN1C(=O)N(C)[C@@H](C)c2ccc(C(=O)NCc3c(F)cc(F)cc3F)cc21 [Example 296, (S)-1-((3-fluoro-5-methoxy-2-methylpyridin-4-yl)methyl)-3,4-dimethyl-2-oxo-N-(2,4,6-trifluorobenzyl)-1,2,3,4-tetrahydroquinazoline-7-carboxamide]
< 1000 nM: all assays above

C[C@H]1c2ccc(C(=O)NCc3c(F)cc(F)cc3F)cc2N(Cc2c(F)cc(O)cc2Cl)C(=O)N1C [Example 298, (S)-1-(2-chloro-6-fluoro-4-hydroxybenzyl)-3,4-dimethyl-2-oxo-N-(2,4,6-trifluorobenzyl)-1,2,3,4-tetrahydroquinazoline-7-carboxamide]
< 1000 nM: all assays above
